Test results reported in patent US20110166123A1, “NOVEL COMPOSITIONS AND METHODS OF USE” (priority 2008, published 2011).

test system: human immunodeficiency virus type 1 (HIV-1); test: microbe, parasite or virus in culture; format: cell-based; details: Human immunodeficiency virus 1, HeLa, 48 h, HIV-1 luciferase reporter, HeLa cells, 48 hours after infection

Structure (SMILES)	EC50 [nM]
COc1cc2c(cc1NCc1c(F)cc(F)cc1F)c(=O)c(C(=O)O)cn2[C@H](CO)C(C)C [Example 21B, (S)-1-(1-hydroxy-3-methylbutan-2-yl)-7-methoxy-4-oxo-6-(2,4,6-trifluorobenzylamino)-1,4-dihydroquinoline-3-carboxylic acid]	< 10
COc1cc2c(cc1NCc1c(F)cccc1F)c(=O)c(C(=O)O)cn2[C@H](CO)C(C)C [Example 21C, (S)-6-(2,6-difluorobenzylamino)-1-(1-hydroxy-3-methylbutan-2-yl)-7-methoxy-4-oxo-1,4-dihydroquinoline-3-carboxylic acid]	10 to 100
COc1cc2c(cc1NCc1ccc(F)cc1F)c(=O)c(C(=O)O)cn2[C@H](CO)C(C)C [Example 21D, (S)-6-(2,4-difluorobenzylamino)-1-(1-hydroxy-3-methylbutan-2-yl)-7-methxoy-4-oxo-1,4-dihydroquinoline-carboxylic acid]	10 to 100
CC(C)[C@@H](CO)n1cc(C(=O)O)c(=O)c2cc(NCc3ccc(F)cc3)ccc21 [Example 22A, (S)-6-(4-fluorobenzylamino)-1-(1-hydroxy-3-methylbutan-2-yl)-4-oxo-1,4-dihydroquinoline-3-carboxylic acid]	> 100
CC(C)(C)[C@@H](CO)n1cc(C(=O)O)c(=O)c2cc(NCc3ccc(F)cc3)ccc21 [Example 22B, (S)-6-(4-fluorobenzylamino)-1-(1-hydroxy-3,3-dimethylbutan-2-yl)-4-oxo-1,4-dihydroquinoline-3-carboxylic acid]	10 to 100
CC(C)[C@@H](CO)n1cc(C(=O)O)c(=O)c2cc(NCc3c(F)cc(F)cc3F)ccc21 [Example 22C, (S)-1-(1-hydroxy-3-methylbutan-2-yl)-4-oxo-6-(2,4,6-trifluorobenzylamino)-1,4-dihydroquinoline-3-carboxylic acid]	10 to 100
CC(C)[C@@H](CO)n1cc(C(=O)O)c(=O)c2cc(OCc3ccc(F)cc3)ccc21 [Example 23A, (S)-6-(4-fluorobenzyloxy)-1-(1-hydroxy-3-methylbutan-2-yl)-4-oxo-1,4-dihydroquinoline-3-carboxylic acid]	> 100
CC(C)(C)[C@@H](CO)n1cc(C(=O)O)c(=O)c2cc(OCc3ccc(F)cc3F)ccc21 [Example 23B, (S)-6-(2,4-difluorobenzyloxy)-1-(1-hydroxy-3,3-dimethylbutan-2-yl)-4-oxo-1,4-dihydroquinoline-3-carboxylic acid]	> 100
CC(C)(C)[C@@H](CO)n1cc(C(=O)O)c(=O)c2cc(OCc3c(F)cc(F)cc3F)ccc21 [Example 23C, (S)-1-(1-hydroxy-3,3-dimethylbutan-2-yl)-4-oxo-6-(2,4,6-trifluorobenzyloxy)-1,4-dihydroquinoline-3-carboxylic acid]	10 to 100
CC(C)[C@@H](CO)n1cc(C(=O)O)c(=O)c2cc(NCc3ccc(F)cc3)c(N3CCOCC3)nc21 [Example 24A, (S)-6-(4-fluorobenzylamino)-1-(1-hydroxy-3-methylbutan-2-yl)-7-morpholino-4-oxo-1,4-dihydro-1,8-naphthyridine-3-carboxylic acid]	> 100
Cc1cc2c(cc1NCc1ccc(F)cc1)c(=O)c(C(=O)O)cn2[C@H](CO)C(C)(C)C [Example 25C, (S)-6-(4-fluorobenzylamino)-1-(1-hydroxy-3,3-dimethylbutan-2-yl)-7-methyl-4-oxo-1,4-dihydroquinoline-3-carboxylic acid]	10 to 100
Cc1cc2c(cc1NCc1c(F)cc(F)cc1F)c(=O)c(C(=O)O)cn2[C@H](CO)C(C)(C)C [Example 25D, (S)-1-(1-hydroxy-3,3-dimethylbutan-2-yl)-7-methyl-4-oxo-6-(2,4,6-trifluorobenzylamino)-1,4-dihydroquinoline-3-carboxylic acid]	< 10
CC(C)(C)[C@@H](CO)n1cc(C(=O)O)c(=O)c2cc(NCc3ccc(F)cc3)c(F)cc21 [Example 26A, (S)-7-fluoro-6-(4-fluorobenzylamino)-1-(1-hydroxy-3,3-dimethylbutan-2-yl)-4-oxo-1,4-dihydroquinoline-3-carboxylic acid]	10 to 100
CC(C)(C)[C@@H](CO)n1cc(C(=O)O)c(=O)c2cc(NCc3c(F)cc(F)cc3F)c(Cl)cc21 [Example 26D, (S)-7-chloro-1-(1-hydroxy-3,3-dimethylbutan-2-yl)-4-oxo-6-(2,4,6-trifluorobenzylamino)-1,4-dihydroquinoline-3-carboxylic acid]	10 to 100
CC(C)(C)[C@@H](CO)n1cc(C(=O)O)c(=O)c2cc(NCc3ccc(F)cc3)c(Cl)cc21 [Example 26E, (S)-7-chloro-6-(4-fluorobenzylamino)-1-(1-hydroxy-3,3-dimethylbutan-2-yl)-4-oxo-1,4-dihydroquinoline-3-carboxylic acid]	> 100
CCOc1nc2c(cc1NCc1ccc(F)cc1)c(=O)c(C(=O)O)cn2[C@H](CO)C(C)C [Example 27A, (S)-7-Ethoxy-6-(4-fluorobenzylamino)-1-(1-hydroxy-3-methylbutan-2-yl)-4-oxo-1,4-dihydro-1,8-naphthyridine-3-carboxylic acid]	> 100
CCOc1nc2c(cc1NCc1c(F)cc(F)cc1F)c(=O)c(C(=O)O)cn2[C@H](CO)C(C)C [Example 27B, (S)-7-Ethoxy-1-(1-hydroxy-3-methylbutan-2-yl)-4-oxo-6-(2,4,6-trifluorobenzylamino)-1,4-dihydro-1,8-naphthyridine-3-carboxylic acid]	10 to 100
COCCOc1cc2c(cc1NCc1ccc(F)cc1)c(=O)c(C(=O)O)cn2[C@H](CO)C(C)(C)C [Example 27C, (S)-6-(4-fluorobenzylamino)-1-(1-hydroxy-3,3-dimethylbutan-2-yl)-7-(2-methoxyethoxy)-4-oxo-1,4-dihydroquinoline-3-carboxylic acid]	10 to 100
CC(C)(C)[C@@H](CO)n1cc(C(=O)O)c(=O)c2cc(NCc3c(F)cc(F)cc3F)c(N3CCOCC3)nc21 [Example 27E, (S)-1-(1-hydroxy-3,3-dimethylbutan-2-yl)-7-morpholino-4-oxo-6-(2,4,6-trifluorobenzylamino)-1,4-dihydro-1,8-naphthyridine-3-carboxylic acid]	10 to 100
COc1cc2c(cc1OCc1cccc(Cl)c1F)c(=O)c(C(=O)O)cn2[C@H](CO)C(C)(C)C [Example 29A, (S)-6-(3-chloro-2-fluorobenzyloxy)-1-(1-hydroxy-3,3-dimethylbutan-2-yl)-7-methoxy-4-oxo-1,4-dihydroquinoline-3-carboxylic acid]	> 100
COc1cc2c(cc1OCc1c(F)cc(F)cc1F)c(=O)c(C(=O)O)cn2[C@H](CO)C(C)(C)C [Example 29B, (S)-1-(1-hydroxy-3,3-dimethylbutan-2-yl)-7-methoxy-4-oxo-6-(2,4,6-trifluorobenzyloxy)-1,4-dihydroquinoline-3-carboxylic acid]	10 to 100
COc1cc2c(cc1OCc1ccccc1C(F)(F)F)c(=O)c(C(=O)O)cn2[C@H](CO)C(C)(C)C [Example 29C, (S)-1-(1-hydroxy-3,3-dimethylbutan-2-yl)-7-methoxy-4-oxo-6-(2-(trifluoromethyl)benzyloxy)-1,4-dihydroquinoline-3-carboxylic acid]	> 100
COc1cc2c(cc1OCc1cc(Cl)ccc1F)c(=O)c(C(=O)O)cn2[C@H](CO)C(C)(C)C [Example 29D, (S)-6-(5-chloro-2-fluorobenzyloxy)-1-(1-hydroxy-3,3-dimethylbutan-2-yl)-7-methoxy-4-oxo-1,4-dihydroquinoline-3-carboxylic acid]	> 100
